This is an account of results in patent US8703204B2, “Nanoparticles comprising a cholesteryl ester transfer protein inhibitor and anon-ionizable polymer” (Bend Research, Inc., priority 2007, dated 2014).

For orientation: solubility means the concentration that dissolves in the medium under given conditions.

SMILES strings stand for the structures. Values after ≈ are worked out from the molar mass of the structure shown. Where two headings read alike, the source gives them in different places.

The nature of this data set: Solubility of the drugs in aqueous media. Type of data set: physicochemical.

For `CCc1cc(Oc2cccc(N(Cc3cccc(OC(F)(F)C(F)F)c3)C[C@@H](O)C(F)(F)F)c2)ccc1Cl` [Drug 1, (2R)-3-[[3-(4-chloro-3-ethylphenoxy)phenyl][[3-(1,1,2,2-tetrafluoroethoxy)phenyl]methyl]amino]-1,1,1-trifluoro-2-propanol], the solubility (phosphate buffered saline, aqueous buffer, PBS, pH 6.5, read-out: solubility in phosphate buffered saline at pH 6.5 (PBS)) was < 0.1 µg/mL.
In the case of `CC[C@@H]1C[C@H](N(Cc2cc(C(F)(F)F)cc(C(F)(F)F)c2)C(C)=O)c2cc(C(F)(F)F)ccc2N1C(=O)OC(C)C` [Drug 2, [2R,4S]4-[acetyl-(3,5-bis-trifluoromethyl-benzyl)-amino]-2-ethyl-6-trifluoromethyl-3,4-dihydro-2H-quinoline-1-carboxylic acid isopropyl ester], the solubility (model fasted duodenal (MFD) solution, fassgf or other biorelevant, MFD solution, read-out: solubility in model fasted duodenal (MFD) solution) is ~11 µg/mL (≈ 18.4 µM).
Take `CCOC(=O)N1c2ccc(C(F)(F)F)cc2[C@@H](N(Cc2cc(C(F)(F)F)cc(C(F)(F)F)c2)C(=O)OC)C[C@H]1CC` [Drug 3, [2R,4S]4-[(3,5-bis-trifluoromethyl-benzyl)-methoxycarbonyl-amino]-2-ethyl-6-trifluoromethyl-3,4-dihydro-2H-quinoline-1-carboxylic acid ethyl ester, reference compound]: for the setting “water, read-out: solubility in water”, the solubility is < 0.1 µg/mL.
